Biological target: T1, OxyR (OxyR-His) (Xanthomonas campestris, UniProt Q8PCA2)
T1 sequence (Q8PCA2 1-313): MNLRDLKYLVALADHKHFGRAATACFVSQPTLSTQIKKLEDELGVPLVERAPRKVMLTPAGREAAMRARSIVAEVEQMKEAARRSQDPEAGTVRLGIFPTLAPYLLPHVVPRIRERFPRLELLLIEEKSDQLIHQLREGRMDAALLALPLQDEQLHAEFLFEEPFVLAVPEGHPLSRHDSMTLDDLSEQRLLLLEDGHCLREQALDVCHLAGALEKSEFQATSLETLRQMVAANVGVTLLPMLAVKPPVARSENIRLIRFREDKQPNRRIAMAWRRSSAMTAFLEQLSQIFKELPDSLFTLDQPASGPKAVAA
Experiment: microscale thermophoresis
Type: binding

In the case of `C[S@@+]([O-])CCCCN=C=S` [sulforaphane], the Kd is reported as 325 ± 105 nM.

— paper PMC9452769 (Molecular Plant Pathology, 2022)
